Experimental findings from patent US8163805B2, “Small molecule antagonists of Bcl-2 family proteins” (The Regents of the University of Michigan, priority 2001, dated 2012) are described below.

In one data set the test system is DU145. As to the kind of experiment: MTT-based 5-day cell proliferation, DU145. To be noted: DU145, FIG. 42. The source says:
(§1) The present invention is not limited to any mechanism. Indeed, a mechanistic understanding of the invention is unnecessary to practice (make and use) the present compositions and methods.

The next data set relates to UM-SCC-17B. As to the kind of experiment: 6-day MTT cell growth, UM-SCC-17B. In kind it is cell-based, human. To be noted: read-out: IC50, inhibition of cell growth. How it is done: (§2) UM-SCC and human fibroblast cell lines were continuously exposed to varying concentrations of (−)-gossypol in 6-day MTT cell survival assays. Control wells contained media (DMEM) with vehicle alone. For each data point n=5.
(§3) Ten squamous cell carcinoma cell lines established at the University of Michigan (UM-SCC) and three human fibroblast lines were grown in Dulbecco's modified Eagle's medium (DMEM) supplemented with 10% fetal bovine serum. UM-SCC cell lines originated from the larynx (n=2; UM-SCC-12, -23), oral cavity/oropharynx (n=5; UM-SCC-1, -6, -14A, -74B, -81B), hypopharynx (n=1; UM-SCC-22A) and metastases from laryngeal cancers (n=2; UM-SCC-17B, -25). Human fibroblast cell lines originated from surgical specimens (fibroblast cell lines 2 and 3) and neonatal foreskin samples (fibroblast cell line 1).
(§4) Logarithmically growing cell lines were cultured, washed, counted, and plated at 5,000-15,000 cells per well in duplicate wells of 96-well plates and incubated in DMEM overnight. […] The MTT assay measures cell survival based on mitochondrial conversion of MTT from a soluble tetrazolium salt into an insoluble colored formazan precipitate, which is dissolved in dimethyl sulfoxide and quantitated by spectrophotometry. […] Percent absorbance relative to control was plotted as a linear function of drug concentration.

The target in a further data set is T1, Bcl-XL (Homo sapiens, UniProt Q07817, DEL45-84).
T1 construct: His-tag (N); made in house
T1 sequence (Q07817 with tags, fused parts or gaps DEL45-84 limits assumed): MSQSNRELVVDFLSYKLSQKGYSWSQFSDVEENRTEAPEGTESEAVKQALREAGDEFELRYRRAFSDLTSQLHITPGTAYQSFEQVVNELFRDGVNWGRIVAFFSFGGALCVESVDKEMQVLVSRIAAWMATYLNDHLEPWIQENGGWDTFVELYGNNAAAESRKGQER
As to the kind of experiment: 15N HSQC NMR binding to Bcl-XL.

A further data set deals with UM-SCC-25. Nature of the data set: 6-day MTT cell growth, UM-SCC-25. In kind it is cell-based, human. To be noted: read-out: IC50, inhibition of cell growth. Here is the method:
as §2, §3, §4

The test system of another data set is UM-SCC cell lines. Nature of the data set: Flow cytometric TUNEL apoptosis assay, UM-SCC cell lines grouped by p53 status. To be noted: 48-hour. In kind it is cell-based, human. In general terms: In flow cytometry, cells or beads pass a laser one at a time.
In another data set the test system is HNSCC cell lines. Nature of the data set: 6-day MTT cell survival, mean over HNSCC cell lines. In kind it is cell-based, human.
A further data set has as its system UM-SCC-12. Nature of the data set: 6-day MTT cell growth, UM-SCC-12. In kind it is cell-based, human. To be noted: read-out: IC50, inhibition of cell growth. Here is the method: as §2, §3, §4
The subject of another data set is UM-SCC-6. As to the kind of experiment: Trypan blue exclusion cell death, UM-SCC-6. In kind it is cell-based, human. To be noted: 10 μM, 48 hour. Here is the method:
Cells were seeded in 24 or 96-well-plates and gossypol compounds were prepared at 2-10 fold dilutions in suitable medium. […] Cell viability was then determined by the trypan-blue assays. Inhibition of cell growth was determined by treating cells with gossypol compounds for 3-6 days. Cell inhibition was determined using XTT. In some embodiments, MTT assays are used to determine cell inhibition.

Data set [1] has as its system normal human fibroblast WI-38 cells. As to the kind of experiment: MTT-based 5-day cell proliferation, WI-38. The settings on record: WI-38, FIG. 42.
Description: as §1

The subject of another data set is UM-SCC-14A. As to the kind of experiment: 6-day MTT cell growth, UM-SCC-14A. To be noted: read-out: IC50, inhibition of cell growth. In kind it is cell-based, human. How it is done:
as §2, §3, §4

Data set [2] relates to androgen-independent prostate PC-3 xenograft. Nature of the data set: PC-3 xenograft, (−)-gossypol and radiation (Example 20). In kind it is in vivo, nude mice. How it is done:
In this experiment, 60 male 5 to 6 week old NCI athymic NCr-nu/nu nude mice were inoculated in each flank with an injection of about 5×10^6 PC-3 cells. The best 40 xenograft recipients were used. Tumors averaged about 70 mm^3. (−)-Gossypol compounds were first dissolved in ethanol and diluted with sterile water within 5 min to a final ethanol concentration of 10% prior to each administration. Irradiated test animals were restrained, placed under the X-ray head, and covered with lead shields to ensure that the tumor area was exposed to radiation. All oral administrations of (−)-gossypol and 10% alcohol were given by gavage.
The 40 best xenograft mice were divided into experimental groups as follows: radiation only (Groups 1 and 2), 2 Gy administered 5 times/week for 3 weeks, and daily oral administration of 10% alcohol (as vehicle control); radiation plus gossypol (Groups 3 and 4), 2 Gy administered 5 times a week for 3 weeks, and 10 mg/kg of (−)-gossypol administered orally 5 times/week for 4 weeks (8 mice each Group); gossypol only (Groups 5 and 6), 10 mg/kg (−)-gossypol administered orally every day for 4 weeks (8 mice each Group); vehicle control (Groups 7 and 8), daily oral administration of 10% alcohol (8 mice each Group as vehicle control); large tumor animals (combination of Groups 9-12), tumors allowed to reach 500 mm^3.
Other remaining tumors in this group appear pale yellowish and soft as compared with that in control group with hard solid and reddish appearance, indicating tumor blood supply was inhibited.

A further data set has as its system UM-SCC-23. Nature of the data set: 6-day MTT cell growth, UM-SCC-23. In kind it is cell-based, human. To be noted: read-out: IC50, inhibition of cell growth. How it is done: as §2, §3, §4
Data set [3] deals with T2, Bcl-XL and pro-apoptotic protein Bim (Homo sapiens, UniProt Q07817).
T2 construct: endogenous in cells; host or cells: HT-29 colon cancer cells
T2 sequence (Q07817 whole entry): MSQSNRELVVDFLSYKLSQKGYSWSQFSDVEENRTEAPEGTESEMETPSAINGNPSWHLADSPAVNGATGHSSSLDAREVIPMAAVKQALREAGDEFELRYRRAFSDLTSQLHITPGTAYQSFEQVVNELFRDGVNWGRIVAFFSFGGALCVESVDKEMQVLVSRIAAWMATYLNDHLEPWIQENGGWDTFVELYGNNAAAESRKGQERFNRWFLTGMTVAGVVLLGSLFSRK
As to the kind of experiment: Immunoprecipitation of Bcl-XL/Bim heterodimerization in HT-29 cells. To be noted: HT-29, starting at 8 hrs. In kind it is cell-based. Here is the method:
In one embodiment HT-29 colon cancer cells, which express only the Bcl-xL protein, were treated with (−)-gossypol at various doses for 4 hrs, 8 hrs, and 12 hrs. To avoid the detergent effects on the dimerization of Bcl-xL proteins in immunoprecipitation experiments, following the treatment of cells with gossypol, immunoprecipitation of cell lysates was carried out in the Chaps buffer with the anti-Bcl-XL antibody. The Bcl-XL bound proteins were then immunoblotted with anti-Bim antibody. […] There is no change in the total Bcl-XL or Bim protein in the same lysates following the (−)-gossypol treatment.

In data set [4] the test system is Fib-1 (fibroblast cell line 1). Nature of the data set: 6-day MTT cell growth, Fib-1. In kind it is cell-based, human. To be noted: read-out: IC50, inhibition of cell growth. How it is done:
as §2, §3, §4

The subject of data set [5] is MCF-7 breast cancer cell line. Nature of the data set: Growth inhibition with TAXOL in fixed ratio, MCF-7. In kind it is cell-based, human. The settings on record: combinations in a fixed ratio to TAXOL.

Description for UM-SCC cell lines: Briefly, FIGS. 24A-24C show apoptosis after (−)-gossypol as measured by a fluorescent flow cytometric TUNEL assay. Open peaks represent BrdU labeling of untreated cells. Shaded peaks indicate BrdU labeling of cell populations following 48-hour treatment with 10 μM (−)-gossypol; FIG. 24A, UM-SCC-cell lines with wild type p53; FIG. 24B, UM-SCC-cell lines with mutant p53; and FIG. 24C normal fibroblast cells.
Apoptosis of UM-SCC cell lines following (−)-gossypol treatment was quantitatively detected by enzymatic labeling of DNA strand breaks using terminal deoxynucleotidyltransferase (TdT) and Alexa Fluor-BrdUTP, known as the TdT-UTP nick end-labeling (TUNEL) assay by flow cytometry. Cells were exposed to (−)-gossypol for 48 hours, harvested, fixed and TUNEL stained according to the manufacturer's protocol (Molecular Probes Inc., Eugene, Oreg.). Ten thousand cells were analyzed per sample using excitation of Alexa Fluor at 488 nm. Apoptotic index (AI) was defined as percent of apoptotic cells in the treatment population minus that in the vehicle control population.

`Cc1cc2c(C(C)C)c(O)c(O)c(C=O)c2c(O)c1-c1c(C)cc2c(C(C)C)c(O)c(O)c(C=O)c2c1O` [(−)-gossypol]: the cytotoxicity entry (in the data set with DU145; in data set [1]) was “very limited effect” each time. Moreover, the IC50 (usually the concentration at which inhibition is half-maximal) amounted to 5 µM in the data set with UM-SCC-17B; 8 µM in the data set on UM-SCC-25; 5.57 ± 2.57 µM with HNSCC cell lines; 4 µM in the data set with UM-SCC-12; 11 µM in the data set with UM-SCC-14A; 1.5 µM with UM-SCC-23. Also, the results for the IC50 in [4] and in data set [5] were 20 µM and 8.71 µM, respectively. At Bcl-XL, the “binding to Bcl-XL by NMR” value was “bind to the BH3 binding groove in Bcl-XL”. In addition, the mean apoptotic index in the data set with UM-SCC cell lines (two cell lines with mutant p53, 10 μM) was 20.7%±9.3. Also, the “mean apoptotic index (AI)” value in the data set on UM-SCC cell lines (two wild-type p53 tumor cell lines, 10 μM) is listed as 85.2%±6.9. Besides, the “surviving (trypan blue excluding) fraction relative to untreated controls” value in the data set with UM-SCC-6 turned out to be 9%. In addition, the “tumors with complete regression” value in [2] ((−)-gossypol 10 mg/kg p.o. q.d.×5 4 weeks + X-ray 2 Gy q.d.×5 3 weeks) was “At least 10 out of 16”. In [2] (Table 15, (−)-gossypol 10 mg/kg p.o. in combination with radiation 2 Gy per day, total 30 Gy), the “tumor growth inhibition compared with vehicle control, day 37” value is “achieved 91.5% tumor growth”. Further, the “complete tumor regression, number of tumors” value in data set [2] (Table 15, combination of (−)-gossypol with radiation, out of 16 tumors) was “regression in 10 out of 16 tumors in”. For the same compound, the “binding of Bcl-XL and Bim in intact cells” value in data set [3] is “dose-dependent decrease in the binding of Bcl-XL and pro-apoptotic protein Bim”.
